Data reported in patent US8519136B2, “Aminopyridine derivatives having aurora a selective inhibitory action” (MSD K.K., priority 2008, dated 2013).
Where a name gives a salt, the structure may show the parent alone.

Biological target: T1, GST-tagged human Aurora B(AurB)/His-tagged human INCENP complex proteins (Homo sapiens, UniProt Q96GD4)
T1 construct: GST; purchased Carna Biosciences, Inc
Experiment: Aurora B inhibitory activity (Method A, IMAP kit)
Type: biochemical
Conditions: 40 μM ATP, 25° C., 45 minutes
Method: An assay development kit for IMAP (registered trademark) (Aurora B), purchased from Carna Biosciences, Inc., was used for phosphorylation reaction, and the phosphorylation of a substrate was detected using the IMAP technology. The assay development kit used is comprised of an assay buffer, GST-tagged human Aurora B(AurB)/His-tagged human INCENP complex proteins (amino acid sequence: 803-916, AAU04398.1), and an ATP/substrate solution. Using the same, the phosphorylation reaction was conducted in accordance with a partially revised protocol attached to the kit, and then the phosphorylation of the substrate was detected using the IMAP technology.
For the phosphorylation reaction, 384 well plate was used, and the reaction volume was 10 μl/well. The composition of the reaction buffer (assay buffer) is comprised of 20 mM of HEPES buffer (pH 7.4), 0.01% Tween-20, and 2 mM of dithiothreitol (DTT). Thereto, AurB/INCENP complex protein, 100 nM of the substrate, and 40 μM of ATP, and 1 mM of magnesium salt were added, and then the reaction was conducted at 25° C. for 45 minutes. Thereafter, in order to terminate and detect the reaction, 30 μl of the IMAP (registered trademark) binding reagent (IMAP Progressive Binding Reagent, R7284) that had been diluted (1:400) in the 1×IMAP binding buffer A (IMAP Progressive Binding Buffer A, 5× stock, R7282) was added to each well. The solution stood still for 60 minutes in the dark, and then fluorescence polarization was measured using a high-end microplate reader (excitation wavelength: 485 nm; emission wavelength: 520 nm).
The compound to be tested was added to the reaction system such that a dilution series of the compound in DMSO was prepared, and then 0.5 μL of this solution was added for the testing to each well. Each control well was provided by adding 0.5 μL of DMSO to the well in place of the DMSO solution containing the compound to be tested.

T1 sequence (Q96GD4 whole entry): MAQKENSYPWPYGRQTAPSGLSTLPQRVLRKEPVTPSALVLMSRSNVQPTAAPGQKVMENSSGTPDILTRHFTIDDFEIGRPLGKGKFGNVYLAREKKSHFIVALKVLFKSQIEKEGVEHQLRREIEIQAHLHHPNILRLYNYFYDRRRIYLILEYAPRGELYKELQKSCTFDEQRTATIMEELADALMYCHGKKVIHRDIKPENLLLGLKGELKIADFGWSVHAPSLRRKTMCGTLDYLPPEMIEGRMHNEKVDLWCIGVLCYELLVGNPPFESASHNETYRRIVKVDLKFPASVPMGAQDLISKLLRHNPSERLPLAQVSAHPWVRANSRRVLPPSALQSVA
T1 sequence (Q9NQS7 803-916 partner limits assumed): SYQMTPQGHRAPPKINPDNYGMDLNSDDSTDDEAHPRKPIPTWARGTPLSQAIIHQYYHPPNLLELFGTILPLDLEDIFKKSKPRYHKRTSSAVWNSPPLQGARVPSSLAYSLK

Structure (SMILES)	IC50 [µM]
Cl.O=C(c1cccc(Cl)c1F)N1CCC(O)(Cc2cccc(Nc3cc[nH]n3)n2)CC1 [Example 2, 1-(3-chloro-2-fluorobenzoyl)-4-((6-(1H-pyrazol-3-ylamino)pyridin-2-yl)methyl)piperidin-4-ol hydrochloride]	0.369
O=c1[nH]nc(C2(Cc3cccc(Nc4cc[nH]n4)n3)CCN(S(=O)(=O)c3ccccc3C(F)(F)F)CC2)o1 [Example 14, 5-(4-((6-(1H-pyrazol-3-ylamino)pyridin-2-yl)methyl)-1-((2-(trifluoromethyl)phenyl)sulfonyl)piperidin-4-yl)-1,3,4-oxadiazol-2(3H)-one trifluoroacetate]	> 1
O=c1[nH]nc(C2(Cc3cccc(Nc4cc[nH]n4)n3)CCN(C(c3cccc(C(F)(F)F)c3)C(F)(F)F)CC2)o1 (stereo not drawn) [Example 19, 5-(4-((6-(1H-pyrazol-3-ylamino)pyridin-2-yl)methyl)-1-(2,2,2-trifluoro-1-(3-(trifluoromethyl)phenyl)ethyl)piperidin-4-yl)-1,3,4-oxadiazol-2(3H)-one trifluoroacetate]	> 1
